Values of other authors, collected in patent US20180344676A1, “TOPICAL ANALGESIC PAIN RELIEF FORMULATIONS, MANUFACTURE AND METHODS OF USE THEREOF” (priority 2015, published 2018).

How the values were obtained:
human TRPM8 (hTRPM8) = human TRPM8 (hTRPM8) (Homo sapiens, UniProt Q7Z2W7)
hTRPV1 = hTRPV1 (Homo sapiens, UniProt Q8NER1)
hTRPV2 = target: T1, hTRPV2 (Homo sapiens, UniProt Q9Y5S1)
T1 sequence (Q9Y5S1 1-764): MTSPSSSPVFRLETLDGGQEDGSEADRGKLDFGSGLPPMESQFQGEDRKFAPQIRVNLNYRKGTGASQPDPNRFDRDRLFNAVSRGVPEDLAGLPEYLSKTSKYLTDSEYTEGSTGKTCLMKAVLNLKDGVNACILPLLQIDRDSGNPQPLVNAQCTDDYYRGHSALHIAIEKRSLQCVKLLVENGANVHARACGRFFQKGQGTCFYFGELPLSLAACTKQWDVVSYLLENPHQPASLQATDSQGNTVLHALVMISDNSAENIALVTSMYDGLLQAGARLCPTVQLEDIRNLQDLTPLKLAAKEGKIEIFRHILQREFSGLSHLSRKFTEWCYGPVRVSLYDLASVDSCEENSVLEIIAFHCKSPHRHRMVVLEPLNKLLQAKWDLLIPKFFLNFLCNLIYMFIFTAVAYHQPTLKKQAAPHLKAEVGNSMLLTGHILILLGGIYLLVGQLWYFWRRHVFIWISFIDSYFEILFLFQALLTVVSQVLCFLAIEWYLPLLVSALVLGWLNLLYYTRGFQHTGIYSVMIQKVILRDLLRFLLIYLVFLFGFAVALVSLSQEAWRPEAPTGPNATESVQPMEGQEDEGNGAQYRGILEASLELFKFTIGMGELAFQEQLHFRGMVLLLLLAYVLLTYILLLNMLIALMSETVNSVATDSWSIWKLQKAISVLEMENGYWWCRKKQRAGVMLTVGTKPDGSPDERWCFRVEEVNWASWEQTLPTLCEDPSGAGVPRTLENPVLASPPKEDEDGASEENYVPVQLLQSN

hTRPA1 = hTRPA1 (Homo sapiens, UniProt O75762); conditions: for inhibition of hTRPA1 activation by menthol and allyl isothiocyanate: compound at 1 mM, menthol 1 mM and allyl isothiocyanate 10 uM
Sequence of hTRPA1 (O75762 whole entry): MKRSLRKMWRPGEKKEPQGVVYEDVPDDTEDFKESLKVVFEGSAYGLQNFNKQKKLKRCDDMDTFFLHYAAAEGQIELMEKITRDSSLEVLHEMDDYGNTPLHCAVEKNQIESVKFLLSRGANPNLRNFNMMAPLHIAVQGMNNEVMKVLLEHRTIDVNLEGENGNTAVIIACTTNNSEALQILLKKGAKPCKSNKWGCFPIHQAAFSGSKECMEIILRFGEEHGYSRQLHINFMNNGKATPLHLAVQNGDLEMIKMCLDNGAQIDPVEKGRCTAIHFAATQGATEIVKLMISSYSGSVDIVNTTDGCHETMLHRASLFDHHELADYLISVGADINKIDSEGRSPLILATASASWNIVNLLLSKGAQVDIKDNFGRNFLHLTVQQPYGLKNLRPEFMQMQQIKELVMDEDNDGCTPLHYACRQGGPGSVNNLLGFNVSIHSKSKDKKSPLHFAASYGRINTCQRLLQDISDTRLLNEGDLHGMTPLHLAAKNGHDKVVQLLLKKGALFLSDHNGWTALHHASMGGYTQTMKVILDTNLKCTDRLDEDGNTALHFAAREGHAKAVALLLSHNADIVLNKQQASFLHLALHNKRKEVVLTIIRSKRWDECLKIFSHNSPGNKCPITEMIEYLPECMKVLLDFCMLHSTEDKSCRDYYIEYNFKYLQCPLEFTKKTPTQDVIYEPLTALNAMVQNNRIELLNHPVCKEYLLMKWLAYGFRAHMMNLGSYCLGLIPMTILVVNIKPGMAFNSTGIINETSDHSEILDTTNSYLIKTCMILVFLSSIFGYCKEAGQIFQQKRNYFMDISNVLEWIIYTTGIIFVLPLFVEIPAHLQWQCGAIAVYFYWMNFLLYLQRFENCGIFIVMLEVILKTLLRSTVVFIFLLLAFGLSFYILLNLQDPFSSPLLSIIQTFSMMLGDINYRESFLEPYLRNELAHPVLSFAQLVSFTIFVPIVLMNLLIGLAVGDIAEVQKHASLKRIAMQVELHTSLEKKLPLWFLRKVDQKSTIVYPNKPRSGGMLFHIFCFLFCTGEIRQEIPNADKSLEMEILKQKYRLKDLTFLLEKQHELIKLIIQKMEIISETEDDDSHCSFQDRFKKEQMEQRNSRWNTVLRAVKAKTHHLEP

pain and itch responses = conditions: mice

Sequence of human TRPM8 (hTRPM8) (Q7Z2W7 whole entry): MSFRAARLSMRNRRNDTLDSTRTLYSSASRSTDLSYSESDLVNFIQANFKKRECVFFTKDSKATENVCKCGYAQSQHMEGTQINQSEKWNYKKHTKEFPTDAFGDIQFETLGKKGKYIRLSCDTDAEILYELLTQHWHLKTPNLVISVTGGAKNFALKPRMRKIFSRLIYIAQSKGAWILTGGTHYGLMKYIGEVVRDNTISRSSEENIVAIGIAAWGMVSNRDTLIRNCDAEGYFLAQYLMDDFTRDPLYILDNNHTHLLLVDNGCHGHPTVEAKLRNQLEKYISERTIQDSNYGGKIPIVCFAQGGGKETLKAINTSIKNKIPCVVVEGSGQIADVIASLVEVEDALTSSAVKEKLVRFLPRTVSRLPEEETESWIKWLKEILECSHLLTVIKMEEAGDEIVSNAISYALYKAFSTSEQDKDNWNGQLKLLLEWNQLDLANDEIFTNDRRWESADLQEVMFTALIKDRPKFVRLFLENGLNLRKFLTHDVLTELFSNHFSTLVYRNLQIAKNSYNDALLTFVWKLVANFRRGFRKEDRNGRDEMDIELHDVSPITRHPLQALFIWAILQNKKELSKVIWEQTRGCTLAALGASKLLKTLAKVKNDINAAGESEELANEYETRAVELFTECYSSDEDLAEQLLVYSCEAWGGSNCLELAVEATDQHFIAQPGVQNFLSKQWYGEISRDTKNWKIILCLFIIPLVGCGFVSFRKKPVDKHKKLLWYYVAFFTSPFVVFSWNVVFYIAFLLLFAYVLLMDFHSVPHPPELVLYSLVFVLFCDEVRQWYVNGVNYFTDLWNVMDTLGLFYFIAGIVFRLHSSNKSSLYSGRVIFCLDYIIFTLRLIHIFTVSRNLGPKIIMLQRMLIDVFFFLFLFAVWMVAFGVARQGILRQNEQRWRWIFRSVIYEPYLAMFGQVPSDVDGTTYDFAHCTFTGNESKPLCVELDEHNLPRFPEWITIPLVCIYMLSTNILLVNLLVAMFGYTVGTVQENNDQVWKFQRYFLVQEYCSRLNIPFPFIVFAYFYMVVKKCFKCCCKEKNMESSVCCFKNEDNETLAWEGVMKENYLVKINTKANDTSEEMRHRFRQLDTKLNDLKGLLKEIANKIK
Sequence of hTRPV1 (Q8NER1 whole entry): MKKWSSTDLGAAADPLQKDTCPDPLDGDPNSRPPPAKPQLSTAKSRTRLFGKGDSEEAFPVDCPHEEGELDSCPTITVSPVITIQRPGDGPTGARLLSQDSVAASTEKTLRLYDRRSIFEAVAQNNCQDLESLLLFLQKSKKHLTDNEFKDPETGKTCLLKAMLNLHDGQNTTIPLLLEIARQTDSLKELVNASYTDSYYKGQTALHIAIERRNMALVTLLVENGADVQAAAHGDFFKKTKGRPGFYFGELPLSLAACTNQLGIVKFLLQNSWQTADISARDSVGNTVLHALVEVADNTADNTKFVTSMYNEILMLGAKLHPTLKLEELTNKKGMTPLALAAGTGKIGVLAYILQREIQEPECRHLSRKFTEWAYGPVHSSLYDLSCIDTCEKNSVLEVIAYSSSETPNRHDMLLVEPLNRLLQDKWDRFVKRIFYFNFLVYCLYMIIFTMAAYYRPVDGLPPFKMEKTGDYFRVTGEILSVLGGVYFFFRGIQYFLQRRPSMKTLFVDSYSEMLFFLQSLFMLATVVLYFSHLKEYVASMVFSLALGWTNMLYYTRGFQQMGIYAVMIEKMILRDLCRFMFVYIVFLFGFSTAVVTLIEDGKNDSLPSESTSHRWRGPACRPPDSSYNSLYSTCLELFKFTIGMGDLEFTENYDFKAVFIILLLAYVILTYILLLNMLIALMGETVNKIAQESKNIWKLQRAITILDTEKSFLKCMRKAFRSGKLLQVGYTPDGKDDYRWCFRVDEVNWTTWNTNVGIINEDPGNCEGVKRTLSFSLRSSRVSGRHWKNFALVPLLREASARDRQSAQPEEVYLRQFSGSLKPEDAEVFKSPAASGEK

| activation of hTRPA1 (hTRPA1) | inhibition of hTRPA1 activation by menthol and allyl isothiocyanate (hTRPA1) | SMILES | other results |
| --- | --- | --- | --- |
|  |  | CC12CCC(CC1)C(C)(C)O2 [1,8-cineole] | activation of human TRPM8 (human TRPM8 (hTRPM8)): activates; activation of hTRPV1 (hTRPV1): did no( activate; activation of hTRPV2 (hTRPV2): did no( activate |
| did not activate | completely inhibited | CC1(C)[C@@H]2CC[C@@]1(C)[C@](C)(O)C2 [2-methylosoborneol] |  |
| did not activate | completely inhibited | CC1(C)C2CCC1(C)C(O)C2 (stereo not shown) [borneol] |  |
| did not activate |  | CC12CCC(CC1=O)C2(C)C (stereo not shown) [camphor] |  |
| did not activate | completely inhibited | CC12CCC(C1)C(C)(C)C2O (stereo not shown) [fenchyl alcohol] |  |
| did not activate |  | O=C1CC2CC[C@H]1C2 [norcamphor] |  |
|  |  | CCCCCCCC/C=C\CCCCCCCC(=O)O [oleic acid] | TRPV1 activity (TRPV1): inhibited; pain and itch responses (pain and itch responses): inhibited |
